From ChEMBL document CHEMBL1201862, “PubChem BioAssay data set” (2004)
Calls of active or inactive are those of the source.

Columns and labels:
[1] = target: Beta-2 adrenergic receptor (Homo sapiens, UniProt P07550); assay: beta2AR agonists driving receptor internalization, dose response, cell-based, FAP fluorogen, flow cytometry, cherry pick 1 (AID 588763); assay type: functional
HEK293 [2] = assay: inhibitors of LMP1-driven NF-kB reporter, dose response, cell-based, HEK293, luciferase, cherry-pick (AID 588343); assay type: functional; conditions: Homo sapiens
Aurora kinase A = Aurora kinase A (Homo sapiens, UniProt O14965); assay type: functional;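 also: value from the Navigating the Kinome kinase panel profiling, panel entry STK6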
Sequence of Aurora kinase A (O14965 whole entry): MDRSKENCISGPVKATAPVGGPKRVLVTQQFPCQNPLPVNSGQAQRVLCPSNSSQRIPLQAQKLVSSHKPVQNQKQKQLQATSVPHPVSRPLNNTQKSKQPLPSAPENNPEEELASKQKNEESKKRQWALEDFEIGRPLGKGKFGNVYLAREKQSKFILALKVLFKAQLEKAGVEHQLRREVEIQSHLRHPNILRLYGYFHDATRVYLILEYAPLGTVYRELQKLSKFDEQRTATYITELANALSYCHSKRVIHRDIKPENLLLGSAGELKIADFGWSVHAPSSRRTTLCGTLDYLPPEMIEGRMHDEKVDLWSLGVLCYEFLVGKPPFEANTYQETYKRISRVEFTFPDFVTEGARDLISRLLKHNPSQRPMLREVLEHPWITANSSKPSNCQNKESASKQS

Aurora kinase B = Aurora kinase B (Homo sapiens, UniProt Q96GD4); assay type: functional
Sequence of Aurora kinase B (Q96GD4 whole entry): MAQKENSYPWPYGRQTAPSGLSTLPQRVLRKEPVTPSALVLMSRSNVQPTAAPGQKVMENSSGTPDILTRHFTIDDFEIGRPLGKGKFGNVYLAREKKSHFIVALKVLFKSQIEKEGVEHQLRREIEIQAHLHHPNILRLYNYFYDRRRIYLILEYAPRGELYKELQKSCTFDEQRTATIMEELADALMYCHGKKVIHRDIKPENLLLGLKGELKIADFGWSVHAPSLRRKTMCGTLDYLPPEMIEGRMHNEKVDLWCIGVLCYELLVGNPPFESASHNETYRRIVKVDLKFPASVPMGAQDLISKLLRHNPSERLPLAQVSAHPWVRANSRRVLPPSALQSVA

[3] = target: DNA dC->dU-editing enzyme APOBEC-3G (Homo sapiens, UniProt Q9HC16); assay: APOBEC3G deaminase inhibitors, SAR follow-up, biochemical, fluorescence, single-stranded DNA substrate (AID 602136); assay type: functional; conditions: read-out: IC50_Mean
Sequence of DNA dC->dU-editing enzyme APOBEC-3G (Q9HC16 whole entry): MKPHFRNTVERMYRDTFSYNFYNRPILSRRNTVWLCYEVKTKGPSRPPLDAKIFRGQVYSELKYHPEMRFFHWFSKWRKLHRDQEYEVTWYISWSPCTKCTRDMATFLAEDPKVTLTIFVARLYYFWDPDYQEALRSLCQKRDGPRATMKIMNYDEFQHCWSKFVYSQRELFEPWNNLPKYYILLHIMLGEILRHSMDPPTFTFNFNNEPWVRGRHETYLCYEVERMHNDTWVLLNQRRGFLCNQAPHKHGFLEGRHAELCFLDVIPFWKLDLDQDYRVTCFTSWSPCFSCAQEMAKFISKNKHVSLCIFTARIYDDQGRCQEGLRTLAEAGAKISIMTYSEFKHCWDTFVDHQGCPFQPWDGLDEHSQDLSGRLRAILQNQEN

[4] = target: DNA dC->dU-editing enzyme APOBEC-3A (Homo sapiens, UniProt P31941); assay: SAR analysis of small molecule inhibitors of APOBEC3A DNA Deaminase via a fluorescence-based single-stranded DNA deaminase assay.; assay type: functional; conditions: read-out: IC50_Mean
Sequence of DNA dC->dU-editing enzyme APOBEC-3A (P31941 whole entry): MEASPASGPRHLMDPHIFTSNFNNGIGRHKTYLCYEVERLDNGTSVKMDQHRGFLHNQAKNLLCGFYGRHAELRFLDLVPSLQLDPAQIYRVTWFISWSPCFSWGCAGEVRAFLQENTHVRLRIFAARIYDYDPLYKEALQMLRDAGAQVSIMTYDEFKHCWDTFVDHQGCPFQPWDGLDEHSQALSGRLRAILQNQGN

HEK293 [5] = assay: cytotoxicity in HEK293T NF-kB-Luc cells, SAR follow-up, cytotoxicity control for NF-kB activator project, cell-based, resazurin fluorescence (AID 493251); assay type: functional; conditions: Homo sapiens
Jurkat = assay: SAR Analysis of small molecule inhibitors of T-cell specific antigen receptor-induced NF-kB activation in a Jurkat cell line using a luminescence assay - Set 2. [Related pubchem assays (depositor defined):AID435003, AID435012, AID465]; assay type: functional, cell-based; conditions: Homo sapiens
HEK293 [6] = assay: SAR Analysis of small molecule inhibitors of T-cell specific antigen receptor-induced NF-kB activation in a HEK-293T cell line using a luminescence assay - Set 2. [Related pubchem assays (depositor defined):AID435003, AID435012, AID489026]; assay type: functional, cell-based; conditions: Homo sapiens
[7] = target: T1, Heat shock factor protein 1 (Mus musculus, UniProt P38532); assay: inhibition of MG132-induced HSE-luciferase signal, confirmation, cell-based, NIH3T3, luminescence, dose retest (AID 2382); assay type: functional;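 also: NIH3T3 fibroblasts with HSF1-driven luciferase reporter stressed by proteasome inhibitor MG132; luminescence from HSF1-driven luciferase expression after 8 hours of MG132 stress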
T1 sequence (P38532 whole entry): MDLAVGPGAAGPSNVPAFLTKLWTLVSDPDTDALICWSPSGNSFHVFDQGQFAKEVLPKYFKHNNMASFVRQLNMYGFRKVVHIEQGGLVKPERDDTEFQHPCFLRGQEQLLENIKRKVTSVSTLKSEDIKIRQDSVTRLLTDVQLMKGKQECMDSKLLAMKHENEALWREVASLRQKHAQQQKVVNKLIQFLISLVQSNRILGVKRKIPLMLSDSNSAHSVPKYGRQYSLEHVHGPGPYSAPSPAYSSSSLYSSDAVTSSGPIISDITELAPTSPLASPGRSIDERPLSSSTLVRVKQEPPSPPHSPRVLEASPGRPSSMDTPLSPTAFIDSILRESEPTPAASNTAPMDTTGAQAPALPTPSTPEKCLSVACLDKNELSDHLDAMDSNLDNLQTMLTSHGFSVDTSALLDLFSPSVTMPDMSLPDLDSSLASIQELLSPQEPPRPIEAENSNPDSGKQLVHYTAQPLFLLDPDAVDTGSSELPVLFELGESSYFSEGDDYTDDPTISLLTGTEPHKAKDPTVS

[8] = target: Melanin-concentrating hormone receptor 1 (Homo sapiens, UniProt Q99705); assay: Late-stage fluorescence-based counterscreen for antagonists of the G-protein coupled receptor 7 (GPR7): cell-based dose response assay to identify antagonists of the melanin-concentrating hormone receptor 1 (MCHR1) Set 6.; assay type: functional
Sequence of Melanin-concentrating hormone receptor 1 (Q99705 whole entry): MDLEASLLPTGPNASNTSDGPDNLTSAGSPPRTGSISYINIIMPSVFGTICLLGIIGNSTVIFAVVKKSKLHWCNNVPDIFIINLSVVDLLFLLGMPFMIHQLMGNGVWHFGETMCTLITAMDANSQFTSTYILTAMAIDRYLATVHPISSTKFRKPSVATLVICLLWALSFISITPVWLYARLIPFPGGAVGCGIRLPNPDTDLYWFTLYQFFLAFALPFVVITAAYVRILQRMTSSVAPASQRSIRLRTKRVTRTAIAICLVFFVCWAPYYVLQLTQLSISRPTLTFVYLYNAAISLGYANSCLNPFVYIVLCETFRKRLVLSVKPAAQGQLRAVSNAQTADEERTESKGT

[9] = target: T2, Neuropeptides B/W receptor type 1 (Homo sapiens, UniProt P48145); assay: GPR7 antagonist potency, late-stage follow-up, cell-based, fluorescence, dose response, set 6 (AID 588583); assay type: functional
T2 sequence (P48145 whole entry): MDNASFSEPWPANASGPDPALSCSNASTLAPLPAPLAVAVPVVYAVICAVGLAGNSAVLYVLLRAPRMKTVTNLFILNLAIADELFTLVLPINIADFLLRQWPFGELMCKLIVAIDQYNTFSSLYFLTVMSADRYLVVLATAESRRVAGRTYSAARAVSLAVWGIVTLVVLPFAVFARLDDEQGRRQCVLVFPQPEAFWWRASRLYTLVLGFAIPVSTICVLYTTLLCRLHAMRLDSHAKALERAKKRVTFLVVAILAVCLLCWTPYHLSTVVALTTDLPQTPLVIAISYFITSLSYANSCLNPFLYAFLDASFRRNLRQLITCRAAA

Melanocortin receptor 4 = Melanocortin receptor 4 (Homo sapiens, UniProt P32245); assay: MC4R antagonist potency on cAMP, dose response, cell-based, TR-FRET, biased antagonists (AID 602298); assay type: functional;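 also: antagonist potency against agonist-stimulated cAMP production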
Sequence of Melanocortin receptor 4 (P32245 whole entry): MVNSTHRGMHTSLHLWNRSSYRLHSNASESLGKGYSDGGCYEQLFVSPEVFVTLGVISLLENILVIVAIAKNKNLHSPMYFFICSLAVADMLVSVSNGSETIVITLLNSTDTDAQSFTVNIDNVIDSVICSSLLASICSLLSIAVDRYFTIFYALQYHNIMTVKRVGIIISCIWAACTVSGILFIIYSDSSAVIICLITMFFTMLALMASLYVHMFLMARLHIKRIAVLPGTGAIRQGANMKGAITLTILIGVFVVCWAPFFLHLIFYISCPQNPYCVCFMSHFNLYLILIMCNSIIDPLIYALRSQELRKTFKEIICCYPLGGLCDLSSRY

[10] = nonselective inhibitors of cellular cAMP signaling, dose response, counter-screen for MC4R biased antagonist project, cell-based, TR-FRET cAMP detection (AID 602305); assay type: functional;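 also: U2OS cells stimulated with forskolin near its EC80 as the cAMP inducer; potency is for inhibition of forskolin-stimulated cAMP signaling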
[11] = target: Glyceraldehyde-3-phosphate dehydrogenase (Homo sapiens, UniProt P04406)
Sequence of Glyceraldehyde-3-phosphate dehydrogenase (P04406 whole entry): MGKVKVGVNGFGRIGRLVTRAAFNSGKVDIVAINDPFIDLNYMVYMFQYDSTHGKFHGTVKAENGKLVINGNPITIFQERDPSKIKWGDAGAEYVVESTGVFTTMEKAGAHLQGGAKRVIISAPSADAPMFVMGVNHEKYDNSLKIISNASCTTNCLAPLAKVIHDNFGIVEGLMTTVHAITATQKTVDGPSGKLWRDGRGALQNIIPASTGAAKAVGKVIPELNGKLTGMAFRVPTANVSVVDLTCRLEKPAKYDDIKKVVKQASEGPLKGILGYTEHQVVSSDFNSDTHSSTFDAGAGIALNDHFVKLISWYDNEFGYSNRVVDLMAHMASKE

[12] = target: T3, Alkaline phosphatase, tissue-nonspecific isozyme (Homo sapiens, UniProt P05186); assay: human TNAP enzyme inhibitors, SAR follow-up, biochemical, luminescent, dose response (AID 1056)
T3 sequence (P05186 whole entry): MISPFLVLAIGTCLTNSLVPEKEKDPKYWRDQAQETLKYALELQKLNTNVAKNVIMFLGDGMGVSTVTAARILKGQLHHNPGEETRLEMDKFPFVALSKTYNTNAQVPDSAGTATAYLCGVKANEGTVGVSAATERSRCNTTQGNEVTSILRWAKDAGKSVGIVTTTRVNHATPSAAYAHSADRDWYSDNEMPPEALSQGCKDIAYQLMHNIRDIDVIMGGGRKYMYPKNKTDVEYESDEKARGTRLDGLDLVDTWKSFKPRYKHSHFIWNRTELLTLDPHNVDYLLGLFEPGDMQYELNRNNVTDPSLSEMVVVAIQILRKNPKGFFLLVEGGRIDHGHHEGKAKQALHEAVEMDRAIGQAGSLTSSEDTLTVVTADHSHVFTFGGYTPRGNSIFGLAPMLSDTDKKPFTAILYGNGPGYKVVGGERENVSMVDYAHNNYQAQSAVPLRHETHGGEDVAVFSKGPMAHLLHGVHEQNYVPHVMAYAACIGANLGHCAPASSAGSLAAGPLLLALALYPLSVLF

[13] = target: Dual specificity protein kinase CLK1 (Homo sapiens, UniProt P49759); assay: CLK1 kinase inhibitors, off-target check, dose response, selectivity assay for Dyrk1A inhibitor project, biochemical, cherry-picked samples (AID 588811)
Sequence of Dual specificity protein kinase CLK1 (P49759 whole entry): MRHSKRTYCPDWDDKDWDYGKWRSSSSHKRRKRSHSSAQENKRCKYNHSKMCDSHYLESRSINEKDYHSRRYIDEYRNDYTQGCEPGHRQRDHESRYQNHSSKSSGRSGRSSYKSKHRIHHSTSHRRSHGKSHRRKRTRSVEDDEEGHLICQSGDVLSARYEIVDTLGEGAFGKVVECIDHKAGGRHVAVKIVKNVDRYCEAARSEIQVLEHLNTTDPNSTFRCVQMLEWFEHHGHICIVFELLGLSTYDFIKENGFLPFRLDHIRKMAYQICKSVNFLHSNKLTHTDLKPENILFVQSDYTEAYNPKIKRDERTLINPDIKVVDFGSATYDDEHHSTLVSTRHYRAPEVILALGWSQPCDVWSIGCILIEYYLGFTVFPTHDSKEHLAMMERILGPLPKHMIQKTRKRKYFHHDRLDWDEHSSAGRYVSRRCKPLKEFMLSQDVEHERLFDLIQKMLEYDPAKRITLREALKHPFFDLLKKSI

[14] = target: Dual specificity tyrosine-phosphorylation-regulated kinase 1A (Rattus norvegicus, UniProt Q63470); assay type: biochemical, Homo sapiens

Sequence of Beta-2 adrenergic receptor (P07550 whole entry): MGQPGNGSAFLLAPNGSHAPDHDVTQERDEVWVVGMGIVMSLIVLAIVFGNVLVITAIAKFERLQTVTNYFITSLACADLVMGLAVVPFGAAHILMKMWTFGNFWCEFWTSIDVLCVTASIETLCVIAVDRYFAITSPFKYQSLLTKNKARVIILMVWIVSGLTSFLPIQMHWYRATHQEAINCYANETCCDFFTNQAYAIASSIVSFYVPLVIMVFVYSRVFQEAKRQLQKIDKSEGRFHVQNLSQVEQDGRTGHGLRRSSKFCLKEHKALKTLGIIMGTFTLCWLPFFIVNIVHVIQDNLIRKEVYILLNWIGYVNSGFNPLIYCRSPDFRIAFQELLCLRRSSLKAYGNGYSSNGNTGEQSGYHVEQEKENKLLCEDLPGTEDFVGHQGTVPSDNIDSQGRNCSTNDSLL

With `Nc1cc(N)nc(SCc2cc([N+](=O)[O-])cc3c2OCOC3)n1` the EC50 [1] was 1.18 µM (active).
For `COc1ccc2cc(-c3cc(C(=O)OCC(=O)Nc4c(C)n(C)n(-c5ccccc5)c4=O)c4ccccc4n3)ccc2c1`, the AC50 (HEK293 [2]) was 1.07 µM (active).
In the case of `Nc1ccc(S(=O)(=O)O)c2cccc(O)c12`, the Ki (Aurora kinase A) is reported as 0.0794 µM (active) and the Ki (Aurora kinase B) is reported as 0.251 µM (active).
In the case of `Cn1cccc1/C=C(/C#N)C(=O)Nc1cc(Cl)ccc1N1CCOCC1`, the IC50 [3] is reported as > 99 µM (inactive) and the IC50 [4] is reported as > 99 µM (inactive).
In the case of `CC(C)CC(=O)NC(c1ccc(C(C)C)cc1)c1ccc2cccnc2c1O` (centres undefined), the IC50 (HEK293 [5]) is reported as 18 µM (active), the IC50 (Jurkat) is reported as 2.49 µM (active) and the IC50 (HEK293 [6]) is reported as 7.36 µM (active).
With `Cc1ccc(-n2cc(C(=O)c3ccccc3O)cn2)cc1` the EC50 [7] was < 0.16 µM (active) and the AC50 (HEK293 [2]) was 0.725 µM (active).
In the case of `CCOc1ccc(Oc2c(Cl)cnn(Cc3cccc4ccccc34)c2=S)cc1`, the IC50 [8] is reported as 1.51 µM (active) and the IC50 [9] is reported as 1.51 µM (active).
In the case of `CC(C)CN(C(=O)COC(=O)c1cnc(Cl)c(Cl)c1)c1c(N)n(Cc2ccccc2)c(=O)[nH]c1=O`, the IC50 (Melanocortin receptor 4) is reported as 11.1 µM (inactive) and the IC50 [10] is reported as > 64.6 µM (inactive).
In the case of `COc1ccc2c(c1)CCc1c-2n[nH]c1C(=O)O`, the IC50 [11] is reported as > 10 µM (inconclusive), the IC50 [12] is reported as 3.71 µM (active) and the AC50 [13] is reported as 16.9 µM (active). The AC50 [14] was 7.28 µM (active).
